# Literature values as cited in patent publication US12253532B2, “Mass spectrometric quantitation assay for metabolites of leflunomide” (Quest Diagnostics Investments LLC, priority 2010, dated 2025).
# Read-outs that look alike come from different tables or passages of the source.
smiles,measurement,setting,value
"CC(O)=C(C#N)C(=O)Nc1ccc(C(F)(F)F)cc1 [teriflunomide, 2-cyano-3-hydroxy-N-(4-trifluoromethylphenyl)-2-butenamide]",Mean steady state plasma concentration of teriflunomide,patients on daily dosage of 5 mg leflunomide,about 8800 ng/mL
same,Mean steady state plasma concentration of teriflunomide,patients on daily dosage of 10 mg leflunomide,"~18,000 ng/mL"
same,Mean steady state plasma concentration of teriflunomide,patients on daily dosage of 25 mg leflunomide,"~63,000 ng/mL"
